The values that follow come from US9533985B2, “Sulfonamide derivative and medicinal use thereof” (EA Pharma Co., Ltd., priority 2012, dated 2017).

In this assay the target is α4β7 integrin (Homo sapiens (Human), UniProt P13612+P26010). Nature of the assay: MAdCAM-1/α4β7 integrin binding inhibitory activity evaluation test in the presence of serum (2). The class given is cell-based. The note with it: RPMI-8866 cells binding to mouse MAdCAM-1/Fc, same manner as Test (3), read-out: α4β7 Rank of activity with serum added. As for the experimental part: The ability of test substances to inhibit the binding of a human B cell line, RPMI-8866, which is known to express α4β7 integrin, to MAdCAM-1 was measured.
To 96-well microtiter plates, recombinant mouse MAdCAM-1/Fc (R&D systems) solution (1 μg/mL) diluted with buffer A (carbonate buffer, pH 9.6) was added at 50 μL/well, followed by incubation at 4° C. overnight. After washing once with PBS, Block Ace (Snow Brand Milk Products Company, Limited) was added at 150 μL/well, followed by incubation at room temperature for 2 hours. After removal, washing was conducted once with PBS.
100 μL of each test substance diluted with a binding buffer (DMEM containing 40 mM HEPES, 0.2% BSA, and 4 mM MnCl2) to various concentrations and 100 μL of RPMI-8866 cells (2×10^6 cell/mL) were added to plates coated with MAdCAM-1/Fc (5×10^5 cells/well) with human serum being contained at a final concentration of 50%, followed by incubation at 30° C. for 15 minutes to 60 minutes. After the cells were bound to each well, unbound cells were removed by washing with PBS. To the plates, buffer C (PBS containing 1.5% Triton X-100) was added at 50 μL/well to lyse the bound RPMI-8866 cells. To 30 μL of the cell lysate, 30 μL of Substrate Buffer (Promega, CytoTox 96 Non-Radioactive Cytotoxicity Assay) was added, and the reaction was allowed to proceed at room temperature in a dark place for 30 minutes. To each well, 30 μL of Stop Solution (Promega, CytoTox 96 Non-Radioactive Cytotoxicity Assay) was added, and the absorbance at 490 nm was measured by using a plate reader. Here, by the obtained absorbance, the activity of the lactate dehydrogenase (LDH) dissolved into the supernatant of each well was detected. In other words, the absorbance was proportional to the number of the RPMI-8866 cells bound to MAdCAM-1 and remaining on the plate. The test was duplicated. The binding ratios of the cells at various concentrations were determined, with the absorbance of a well containing no test substance taken as 100%. Then, the concentration IC50, at which 50% binding inhibition was achieved, was calculated.
The MAdCAM-1/α4β7 integrin binding inhibitory activity in the presence of serum was measured in the same manner as in Test (3) described above. […] The VCAM-1/α4β1 integrin binding inhibitory activity evaluation test and the MAdCAM-1/α4β7 integrin binding inhibitory activity evaluation test were carried out according to the methods described in Tests (1) and (2) described above.

α4β7 integrin, sequence (P13612 34-1032): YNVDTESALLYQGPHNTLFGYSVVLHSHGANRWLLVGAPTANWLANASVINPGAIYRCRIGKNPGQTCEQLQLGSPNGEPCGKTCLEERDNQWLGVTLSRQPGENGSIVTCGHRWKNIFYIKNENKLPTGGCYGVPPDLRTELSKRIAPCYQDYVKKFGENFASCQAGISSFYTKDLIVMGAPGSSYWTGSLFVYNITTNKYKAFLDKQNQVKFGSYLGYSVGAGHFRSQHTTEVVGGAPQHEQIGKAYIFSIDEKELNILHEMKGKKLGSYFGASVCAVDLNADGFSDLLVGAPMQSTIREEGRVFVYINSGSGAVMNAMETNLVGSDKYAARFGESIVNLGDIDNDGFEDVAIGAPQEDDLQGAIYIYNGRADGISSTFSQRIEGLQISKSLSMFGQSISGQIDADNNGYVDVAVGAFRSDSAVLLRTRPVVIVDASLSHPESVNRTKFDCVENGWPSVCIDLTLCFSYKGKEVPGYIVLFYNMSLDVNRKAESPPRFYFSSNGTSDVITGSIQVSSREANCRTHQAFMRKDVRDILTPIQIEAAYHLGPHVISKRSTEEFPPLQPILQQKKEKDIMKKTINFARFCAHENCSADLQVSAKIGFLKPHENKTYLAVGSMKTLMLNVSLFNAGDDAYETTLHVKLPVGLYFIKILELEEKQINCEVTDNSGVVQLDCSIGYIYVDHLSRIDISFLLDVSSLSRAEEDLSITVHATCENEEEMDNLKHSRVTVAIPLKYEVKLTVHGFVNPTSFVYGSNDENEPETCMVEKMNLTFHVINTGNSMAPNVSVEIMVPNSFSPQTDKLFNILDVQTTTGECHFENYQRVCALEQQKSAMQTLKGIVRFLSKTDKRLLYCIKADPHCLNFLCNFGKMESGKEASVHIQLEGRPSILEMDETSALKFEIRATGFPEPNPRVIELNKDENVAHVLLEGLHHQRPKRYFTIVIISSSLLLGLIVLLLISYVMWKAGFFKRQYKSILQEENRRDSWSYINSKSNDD
α4β7 integrin, sequence (P26010 20-798): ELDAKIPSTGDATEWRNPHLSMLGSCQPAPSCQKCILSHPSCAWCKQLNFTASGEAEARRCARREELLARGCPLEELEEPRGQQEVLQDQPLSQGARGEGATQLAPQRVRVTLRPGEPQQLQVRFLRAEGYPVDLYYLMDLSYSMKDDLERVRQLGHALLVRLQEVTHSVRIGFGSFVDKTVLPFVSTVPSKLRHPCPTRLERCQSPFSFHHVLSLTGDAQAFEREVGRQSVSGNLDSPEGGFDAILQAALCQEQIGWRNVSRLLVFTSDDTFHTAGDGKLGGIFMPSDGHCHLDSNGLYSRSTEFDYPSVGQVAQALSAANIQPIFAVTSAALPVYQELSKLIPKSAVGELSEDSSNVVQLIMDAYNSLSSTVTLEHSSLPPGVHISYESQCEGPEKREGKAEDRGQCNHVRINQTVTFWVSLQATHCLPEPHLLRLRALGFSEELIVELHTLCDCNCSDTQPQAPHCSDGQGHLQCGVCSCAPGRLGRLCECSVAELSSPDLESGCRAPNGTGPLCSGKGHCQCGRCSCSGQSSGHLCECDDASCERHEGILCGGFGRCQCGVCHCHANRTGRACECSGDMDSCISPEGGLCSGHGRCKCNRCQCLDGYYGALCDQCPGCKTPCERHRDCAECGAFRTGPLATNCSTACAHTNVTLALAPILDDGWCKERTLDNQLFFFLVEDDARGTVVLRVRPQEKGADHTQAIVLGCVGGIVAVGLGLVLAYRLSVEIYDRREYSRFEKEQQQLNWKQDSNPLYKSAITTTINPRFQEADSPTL

With `Cc1cc(CNC2CCCC2)ccc1S(=O)(=O)Nc1ccc(C(=O)N[C@@H](Cc2ccc(-n3c(=O)c4ccncc4n(C)c3=O)cc2)C(=O)O)c(F)c1` [Example 181, N-{4-[({4-[(Cyclopentylamino)methyl]-2-methylphenyl}sulfonyl)amino]-2-fluorobenzoyl}-4-(1-methyl-2,4-dioxo-1,4-dihydropyrido[3,4-d]pyrimidin-3(2H)-yl)-L-phenylalanine], the IC50 lay within 10 to 50 nM.
The result for `Cn1c(=O)n(-c2ccc(C[C@H](NC(=O)c3cc(F)c(NS(=O)(=O)c4ccc(-n5cnnc5)cc4)cc3F)C(=O)O)nc2)c(=O)c2ccncc21` [Example 219, N-[2,5-Difluoro-4-({[4-(4H-1,2,4-triazol-4-yl)phenyl]sulfonyl}amino)benzoyl]-3-[5-(1-methyl-2,4-dioxo-1,4-dihydropyrido[3,4-d]pyrimidin-3(2H)-yl)pyridin-2-yl]-L-alanine] reads 10 to 50 nM.
`Cn1ccc(=O)n(-c2ccc(C[C@H](NC(=O)c3c(F)cc(NS(=O)(=O)c4ccc(C(=O)NC5CCCC5)cc4)cc3F)C(=O)O)cc2)c1=O` [Example 165, N-{4-[({4-[(Cyclopentylamino)carbonyl]phenyl}sulfonyl)amino]-2,6-difluorobenzoyl}-4-(3-methyl-2,6-dioxo-3,6-dihydropyrimidin-1(2H)-yl)-L-phenylalanine]: the IC50 was at most 10 nM.
Take `CCc1ncc(-c2ccc(S(=O)(=O)Nc3cc(F)c(C(=O)N[C@@H](Cc4ccc(-n5c(=O)c6ccncc6n(C)c5=O)cn4)C(=O)O)cc3F)cc2)cn1` [Example 229, N-[4-({[4-(2-Ethylpyrimidin-5-yl)phenyl]sulfonyl}amino)-2,5-difluorobenzoyl]-3-[5-(1-methyl-2,4-dioxo-1,4-dihydropyrido[3,4-d]pyrimidin-3(2H)-yl)pyridin-2-yl]-L-alanine]: the IC50 fell in the range of 50 to 200 nM.
On to `Cn1c(=O)n(-c2ccc(C[C@H](NC(=O)c3ncc(NS(=O)(=O)c4ccc(-c5ncccn5)cn4)cc3F)C(=O)O)cc2)c(=O)c2ccncc21` [Example 154, N-[(3-Fluoro-5-{[(5-pyrimidin-2-yl-pyridin-2-yl)sulfonyl]amino}pyridin-2-yl)carbonyl]-4-(1-methyl-2,4-dioxo-1,4-dihydropyrido[3,4-d]pyrimidin-3(2H)-yl)-L-phenylalanine], for which the IC50 was in the range of 10 to 50 nM.
For the molecule `CCNC(=O)c1ccc(S(=O)(=O)Nc2cc(F)c(C(=O)N[C@@H](Cc3ccc(-n4c(=O)ccn(C)c4=O)cc3)C(=O)O)c(F)c2)cn1` [Example 164, N-{4-[({6-[(Ethylamino)carbonyl]pyridin-3-yl}sulfonyl)amino]-2,6-difluorobenzoyl}-4-(3-methyl-2,6-dioxo-3,6-dihydropyrimidin-1(2H)-yl)-L-phenylalanine], the IC50 was in the range of 10 to 50 nM.
Under `Cn1ccc(=O)n(-c2ccc(C[C@H](NC(=O)c3c(F)cc(NS(=O)(=O)c4ccc(C(=O)NCC5CC5)cc4)cc3F)C(=O)O)cc2)c1=O` [Example 157, N-(4-{[(4-{[(Cyclopropylmethyl)amino]carbonyl}phenyl)sulfonyl]amino}-2,6-difluorobenzoyl)-4-(3-methyl-2,6-dioxo-3,6-dihydropyrimidin-1(2H)-yl)-L-phenylalanine] stands 10 to 50 nM.
With `Cn1ccc(=O)n(-c2ccc(C[C@H](NC(=O)c3c(F)cc(NS(=O)(=O)c4ccc(C(=O)NC(C)(C)C)nc4)cc3F)C(=O)O)cc2)c1=O` [Example 173, N-{4-[({6-[(tert-Butylamino)carbonyl]pyridin-3-yl}sulfonyl)amino]-2,6-difluorobenzoyl}-4-(3-methyl-2,6-dioxo-3,6-dihydropyrimidin-1(2H)-yl)-L-phenylalanine], the IC50 is at most 10 nM.
Turning to `Cn1c(=O)n(-c2ccc(C[C@H](NC(=O)c3cc(F)c(NS(=O)(=O)c4ccc(-c5cncnc5)cn4)cc3F)C(=O)O)nc2)c(=O)c2ccncc21` [Example 220, N-(2,5-Difluoro-4-{[(5-pyrimidin-5-ylpyridin-2-yl)sulfonyl]amino}benzoyl)-3-[5-(1-methyl-2,4-dioxo-1,4-dihydropyrido[3,4-d]pyrimidin-3(2H)-yl)pyridin-2-yl]-L-alanine], the IC50 lay in the range of 10 to 50 nM.
The result for `Cn1cnc2c1c(=O)n(-c1ccc(C[C@H](NC(=O)c3c(F)cc(NS(=O)(=O)c4ccc(-c5ncccn5)cn4)cc3F)C(=O)O)cc1)c(=O)n2C` [Example 153, N-(2,6-Difluoro-4-{[(5-pyrimidin-2-yl-pyridin-2-yl)sulfonyl]amino}benzoyl)-4-(3,7-dimethyl-2,6-dioxo-2,3,6,7-tetrahydro-1H-purin-1-yl)-L-phenylalanine] reads at most 10 nM; that for `Cn1c(=O)n(-c2ccc(C[C@H](NC(=O)c3ccc(NS(=O)(=O)c4ccc(-c5cncnc5)cn4)cc3F)C(=O)O)cc2)c(=O)c2ccncc21` [Example 163, N-(2-Fluoro-4-{[(5-pyrimidin-5-yl-pyridin-2-yl)sulfonyl]amino}benzoyl)-4-(1-methyl-2,4-dioxo-1,4-dihydropyrido[3,4-d]pyrimidin-3(2H)-yl)-L-phenylalanine], 10 to 50 nM.
Under `CCOc1ccccc1S(=O)(=O)Nc1cc(F)c(C(=O)N[C@@H](Cc2ccc(-n3c(=O)c4ccncc4n(C)c3=O)cn2)C(=O)O)c(F)c1` [Example 146, N-(4-{[(2-Ethoxyphenyl)sulfonyl]amino}-2,6-difluorobenzoyl)-3-[5-(1-methyl-2,4-dioxo-1,4-dihydropyrido[3,4-d]pyrimidin-3(2H)-yl)pyridin-2-yl]-L-alanine] stands 10 to 50 nM; under `Cc1cc(-c2ccc(S(=O)(=O)Nc3cc(F)c(C(=O)N[C@@H](Cc4ccc(-n5c(=O)c6ccncc6n(C)c5=O)cn4)C(=O)O)cc3F)nc2)cc(C)n1` [Example 227, N-(4-{[(2′,6′-Dimethyl-3,4′-bipyridin-6-yl)sulfonyl]amino}-2,5-difluorobenzoyl)-3-[5-(1-methyl-2,4-dioxo-1,4-dihydropyrido[3,4-d]pyrimidin-3(2H)-yl)pyridin-2-yl]-L-alanine], 50 to 200 nM.
`Cn1ccc(=O)n(-c2ccc(C[C@H](NC(=O)c3c(F)cc(NS(=O)(=O)c4ccncc4)cc3F)C(=O)O)cc2)c1=O` [Example 171, N-{2,6-Difluoro-4-[(pyridin-4-yl-sulfonyl)amino]benzoyl}-4-(3-methyl-2,6-dioxo-3,6-dihydropyrimidin-1 (2H)-yl)-L-phenylalanine]: the IC50 lay within 10 to 50 nM.
The result for `Cc1cc(CNC(C)(C)C)ccc1S(=O)(=O)Nc1ccc(C(=O)N[C@@H](Cc2ccc(-n3c(=O)c4ccncc4n(C)c3=O)cc2)C(=O)O)c(F)c1` [Example 180, N-{4-[({4-[(tert-Butylamino)methyl]-2-methylphenyl}sulfonyl)amino]-2-fluorobenzoyl}-4-(1-methyl-2,4-dioxo-1,4-dihydropyrido[3,4-d]pyrimidin-3(2H)-yl)-L-phenylalanine] reads at most 10 nM; that for `Cn1c(=O)n(-c2ccc(C[C@H](NC(=O)c3cc(F)c(NS(=O)(=O)c4ccco4)cc3F)C(=O)O)cn2)c(=O)c2ccncc21` [Example 150, N-{2,5-Difluoro-4-[(2-furylsulfonyl)amino]benzoyl}-3-[6-(1-methyl-2,4-dioxo-1,4-dihydropyrido[3,4-d]pyrimidin-3(2H)-yl)pyridin-3-yl]-L-alanine], 10 to 50 nM; that for `CNCc1ccc(S(=O)(=O)Nc2cc(F)c(C(=O)N[C@@H](Cc3ccc(-n4c(=O)ccn(C)c4=O)cc3)C(=O)O)c(F)c2)cc1` [Example 176, N-{2,6-Difluoro-4-[({4-[(methylamino)methyl]phenyl}sulfonyl)amino]benzoyl}-4-(3-methyl-2,6-dioxo-3,6-dihydropyrimidin-1(2H)-yl)-L-phenylalanine], at most 10 nM.
As for `Cn1ccc(=O)n(-c2ccc(C[C@H](NC(=O)c3cc(F)c(NS(=O)(=O)c4ccc(-c5cncnc5)cc4)cc3F)C(=O)O)cc2)c1=O` [Example 216, N-(2,5-Difluoro-4-{[(4-pyrimidin-5-ylphenyl)sulfonyl]amino}benzoyl)-4-(3-methyl-2,6-dioxo-3,6-dihydropyrimidin-1(2H)-yl)-L-phenylalanine], the IC50 fell in the range of 10 to 50 nM.
With `Cn1c(=O)n(-c2ccc(C[C@H](NC(=O)c3cc(F)c(NS(=O)(=O)c4ccc(-c5ncccn5)cn4)cc3F)C(=O)O)nc2)c(=O)c2ncccc21` [Example 230, N-(2,5-Difluoro-4-{[(5-pyrimidin-2-ylpyridin-2-yl)sulfonyl]amino}benzoyl)-3-[5-(1-methyl-2,4-dioxo-1,4-dihydropyrido[3,2-d]pyrimidin-3(2H)-yl)pyridin-2-yl]-L-alanine], the IC50 fell in the range of 50 to 200 nM.
